In US20240415914A1, “Water Dispersible Cannabinoid Compositions” (priority 2021, published 2024):
Like-named read-outs stand apart in the source and are kept apart here.

Tests used:
[1] = Stability of cannabinoid and Vitamin E components of Beverage 2 (AB Red) stored at 8° C. and 21-25° C., LCMSMS over 570 days
Method: The LCMSMS was calibrated for 0-50 ng/ml cannabinoids with the same resin material used in the preparation of the concentrates. At each time period, 100 μml of beverage was diluted with 10 ml of methanol and injected into the LCMSMS for analysis.

[2] = assay type: physicochemical; conditions: stored at room temperature (21-25° C.)
Method: At each time period, 0.05 g of powder was dissolved in 10 ml-15 of ethanol, diluted to fall within the analytical range, and injected into the LCMSMS for analysis.

CCCCCc1cc(O)c2c(c1)OC(C)(CCC=C(C)C)C=C2 (stereo not shown) [CBC, cannabichromene]
0.285 µg/mL: Stability of Cannabinoids in AB Red ([1]; 8° C., 3 days) | Stability of Cannabinoids in AB Red ([1]; 8° C., 12 days) | Stability of Cannabinoids in AB Red ([1]; 8° C., 180 days)
0.286 µg/mL: Stability of Cannabinoids in AB Red ([1]; 8° C., 5 days) | Stability of Cannabinoids in AB Red ([1]; 8° C., 8 days)
0.289 µg/mL: Stability of Cannabinoids in AB Red ([1]; 8° C., 1 days) | Stability of Cannabinoids in AB Red ([1]; 8° C., 18 days) | Stability of Cannabinoids in AB Red ([1]; 8° C., 120 days)
0.070 mg/g powder: Stability in Powder Concentrate (content by LCMSMS) ([2]; day 0) | Stability in Powder Concentrate (content by LCMSMS) ([2]; day 5) | Stability in Powder Concentrate (content by LCMSMS) ([2]; day 17) | Stability in Powder Concentrate (content by LCMSMS) ([2]; day 19) | Stability in Powder Concentrate (content by LCMSMS) ([2]; day 540)
0.291 µg/mL: Stability of Cannabinoids in AB Red ([1]; 8° C., 24 days)
0.266 µg/mL: Stability of Cannabinoids in AB Red ([1]; 8° C., 570 days)
0.284 µg/mL: Stability of Cannabinoids in AB Red ([1]; 8° C., 11 days) | Stability of Cannabinoids in AB Red ([1]; 8° C., 29 days) | Stability of Cannabinoids in AB Red ([1]; 8° C., 270 days)
0.292 µg/mL: Stability of Cannabinoids in AB Red ([1]; 8° C., 2 days) | Stability of Cannabinoids in AB Red ([1]; 8° C., 15 days)
0.27 µg/mL: Stability of Cannabinoids in AB Red ([1]; 21-25° C., 510 days) | Stability of Cannabinoids in AB Red ([1]; 21-25° C., 570 days)
0.277 µg/mL: Stability of Cannabinoids in AB Red ([1]; 8° C., 420 days)
0.287 µg/mL: Stability of Cannabinoids in AB Red ([1]; 8° C., 19 days) | Stability of Cannabinoids in AB Red ([1]; 8° C., 22 days) | Stability of Cannabinoids in AB Red ([1]; 8° C., 23 days) | Stability of Cannabinoids in AB Red ([1]; 8° C., 25 days) | Stability of Cannabinoids in AB Red ([1]; 8° C., 26 days) | Stability of Cannabinoids in AB Red ([1]; 8° C., 90 days)
0.290 µg/mL: Stability of Cannabinoids in AB Red ([1]; 8° C., 0 days)
0.280 µg/mL: Stability of Cannabinoids in AB Red ([1]; 8° C., 240 days) | Stability of Cannabinoids in AB Red ([1]; 8° C., 300 days)
0.288 µg/mL: Stability of Cannabinoids in AB Red ([1]; 8° C., 9 days) | Stability of Cannabinoids in AB Red ([1]; 8° C., 10 days)
0.271 µg/mL: Stability of Cannabinoids in AB Red ([1]; 8° C., 540 days)
0.073 mg/g powder: Stability in Powder Concentrate (content by LCMSMS) ([2]; day 3) | Stability in Powder Concentrate (content by LCMSMS) ([2]; day 15) | Stability in Powder Concentrate (content by LCMSMS) ([2]; day 16) | Stability in Powder Concentrate (content by LCMSMS) ([2]; day 450)
0.069 mg/g powder: Stability in Powder Concentrate (content by LCMSMS) ([2]; day 12) | Stability in Powder Concentrate (content by LCMSMS) ([2]; day 23) | Stability in Powder Concentrate (content by LCMSMS) ([2]; day 29) | Stability in Powder Concentrate (content by LCMSMS) ([2]; day 330) | Stability in Powder Concentrate (content by LCMSMS) ([2]; day 420) | Stability in Powder Concentrate (content by LCMSMS) ([2]; day 510) | Stability in Powder Concentrate (content by LCMSMS) ([2]; day 570)
0.282 µg/mL: Stability of Cannabinoids in AB Red ([1]; 8° C., 17 days) | Stability of Cannabinoids in AB Red ([1]; 8° C., 30 days) | Stability of Cannabinoids in AB Red ([1]; 8° C., 210 days) | Stability of Cannabinoids in AB Red ([1]; 8° C., 390 days) | Stability of Cannabinoids in AB Red ([1]; 8° C., 450 days)
0.072 mg/g powder: Stability in Powder Concentrate (content by LCMSMS) ([2]; day 1) | Stability in Powder Concentrate (content by LCMSMS) ([2]; day 18) | Stability in Powder Concentrate (content by LCMSMS) ([2]; day 25) | Stability in Powder Concentrate (content by LCMSMS) ([2]; day 30) | Stability in Powder Concentrate (content by LCMSMS) ([2]; day 120) | Stability in Powder Concentrate (content by LCMSMS) ([2]; day 150) | Stability in Powder Concentrate (content by LCMSMS) ([2]; day 210) | Stability in Powder Concentrate (content by LCMSMS) ([2]; day 270)
0.071 mg/g powder: Stability in Powder Concentrate (content by LCMSMS) ([2]; day 2) | Stability in Powder Concentrate (content by LCMSMS) ([2]; day 8) | Stability in Powder Concentrate (content by LCMSMS) ([2]; day 10) | Stability in Powder Concentrate (content by LCMSMS) ([2]; day 11) | Stability in Powder Concentrate (content by LCMSMS) ([2]; day 22) | Stability in Powder Concentrate (content by LCMSMS) ([2]; day 26) | Stability in Powder Concentrate (content by LCMSMS) ([2]; day 180) | Stability in Powder Concentrate (content by LCMSMS) ([2]; day 300) | Stability in Powder Concentrate (content by LCMSMS) ([2]; day 480)
0.267 µg/mL: Stability of Cannabinoids in AB Red ([1]; 8° C., 510 days)
0.068 mg/g powder: Stability in Powder Concentrate (content by LCMSMS) ([2]; day 9) | Stability in Powder Concentrate (content by LCMSMS) ([2]; day 24) | Stability in Powder Concentrate (content by LCMSMS) ([2]; day 60) | Stability in Powder Concentrate (content by LCMSMS) ([2]; day 90) | Stability in Powder Concentrate (content by LCMSMS) ([2]; day 240) | Stability in Powder Concentrate (content by LCMSMS) ([2]; day 360) | Stability in Powder Concentrate (content by LCMSMS) ([2]; day 390)
0.29 µg/mL: Stability of Cannabinoids in AB Red ([1]; 21-25° C., 0 days) | Stability of Cannabinoids in AB Red ([1]; 21-25° C., 3 days) | Stability of Cannabinoids in AB Red ([1]; 21-25° C., 10 days) | Stability of Cannabinoids in AB Red ([1]; 21-25° C., 11 days) | Stability of Cannabinoids in AB Red ([1]; 21-25° C., 18 days) | Stability of Cannabinoids in AB Red ([1]; 21-25° C., 19 days) | Stability of Cannabinoids in AB Red ([1]; 21-25° C., 22 days) | Stability of Cannabinoids in AB Red ([1]; 21-25° C., 24 days) | Stability of Cannabinoids in AB Red ([1]; 21-25° C., 29 days) | Stability of Cannabinoids in AB Red ([1]; 21-25° C., 30 days) | Stability of Cannabinoids in AB Red ([1]; 21-25° C., 60 days) | Stability of Cannabinoids in AB Red ([1]; 21-25° C., 120 days) | Stability of Cannabinoids in AB Red ([1]; 21-25° C., 150 days) | Stability of Cannabinoids in AB Red ([1]; 21-25° C., 210 days) | Stability of Cannabinoids in AB Red ([1]; 21-25° C., 270 days) | Stability of Cannabinoids in AB Red ([1]; 21-25° C., 300 days) | Stability of Cannabinoids in AB Red ([1]; 21-25° C., 330 days)
0.274 µg/mL: Stability of Cannabinoids in AB Red ([1]; 8° C., 480 days)
0.28 µg/mL: Stability of Cannabinoids in AB Red ([1]; 21-25° C., 1 days) | Stability of Cannabinoids in AB Red ([1]; 21-25° C., 2 days) | Stability of Cannabinoids in AB Red ([1]; 21-25° C., 5 days) | Stability of Cannabinoids in AB Red ([1]; 21-25° C., 8 days) | Stability of Cannabinoids in AB Red ([1]; 21-25° C., 9 days) | Stability of Cannabinoids in AB Red ([1]; 21-25° C., 12 days) | Stability of Cannabinoids in AB Red ([1]; 21-25° C., 15 days) | Stability of Cannabinoids in AB Red ([1]; 21-25° C., 16 days) | Stability of Cannabinoids in AB Red ([1]; 21-25° C., 17 days) | Stability of Cannabinoids in AB Red ([1]; 21-25° C., 23 days) | Stability of Cannabinoids in AB Red ([1]; 21-25° C., 25 days) | Stability of Cannabinoids in AB Red ([1]; 21-25° C., 26 days) | Stability of Cannabinoids in AB Red ([1]; 21-25° C., 90 days) | Stability of Cannabinoids in AB Red ([1]; 21-25° C., 180 days) | Stability of Cannabinoids in AB Red ([1]; 21-25° C., 240 days) | Stability of Cannabinoids in AB Red ([1]; 21-25° C., 390 days) | Stability of Cannabinoids in AB Red ([1]; 21-25° C., 420 days) | Stability of Cannabinoids in AB Red ([1]; 21-25° C., 450 days) | Stability of Cannabinoids in AB Red ([1]; 21-25° C., 480 days) | Stability of Cannabinoids in AB Red ([1]; 21-25° C., 540 days)
0.281 µg/mL: Stability of Cannabinoids in AB Red ([1]; 8° C., 150 days)
0.278 µg/mL: Stability of Cannabinoids in AB Red ([1]; 8° C., 60 days) | Stability of Cannabinoids in AB Red ([1]; 8° C., 330 days)
0.283 µg/mL: Stability of Cannabinoids in AB Red ([1]; 8° C., 16 days)
